Measured values reported in a melting point compilation (Tetko et al.; mined from patent text by program, amines drawn as free bases though some values may be those of a salt).

SMILES	melting point [°C]
CCOc1cc(C(CS(C)(=O)=O)N2C(=O)c3cccc(NS(C)(=O)=O)c3C2=O)ccc1OC (stereo not given)	191 to 193
CS(=O)(=O)Nc1ccc2c(c1)CCN(Cc1ccc3cc(NS(C)(=O)=O)ccc3n1)CC2	207 to 210
O=C(O)C(=O)Nc1cccc([N+](=O)[O-])c1	> 270
O=C(O)c1ncn2c1Cn1ccnc1-c1sccc1-2	225 to 227
CN(C(=S)c1ccc([N+](=O)[O-])cc1)C1CCN(C2CCCCC2)C1 (stereo not given)	108 to 110
O=[N+]([O-])c1cccnc1Nc1ccc(O)cc1	143 to 144
O=C(NC1CCN(CCC2CCCCC2)CC1)c1ccccc1	174 to 175
CCNC(=O)C(=O)[C@H](Cc1ccccc1)NC(=O)[C@H](CC(C)C)NC(=O)OCCOC	138
O=[N+]([O-])c1ccc(-c2cccc(-c3cn([C@H]4CN5CCC4CC5)nn3)c2)cn1	180
CN(C)CC1CCc2c(c3cc(C(N)=O)ccc3n2C)C1=O (stereo not given)	171 to 173
CCn1cc(-c2cnccn2)ccc1=O	120 to 121
NC(=O)c1sc2nccc(N3CCCN(c4ccc(C(F)(F)F)cc4)CC3)c2c1N	204 to 208
CCCOc1ccccc1-c1nc2cc3c(cc2c(=O)[nH]1)NCN3CC	147 to 149
CCCCCCCCC(=O)NCc1ccc(C(=O)O)cc1	178 to 180
COc1ccc(S(N)(=O)=O)cc1C(=O)C(C)N=[N+]=[N-] (stereo not given)	113 to 114
COc1cc(OCCCCl)ccc1C(C)=O	47 to 49
Clc1cc(Nc2ccccc2)c(Cl)nn1	137 to 139
CC1CCC2=NNC(=O)CC2C1 (stereo not given)	116 to 118
CC(C)(C)c1ccc(-c2ccc(C(C)(C)C)c(O)c2)cc1	86 to 87
Cn1nnnc1SCC1=C(C(=O)OCOC(=O)C(C)(C)C)N2C(=O)C(NC(=O)Cc3csc(=O)s3)C2SC1 (stereo not given)	100
CCCCCCCCCCCCCCc1ccc(OCC(O)CO)cc1 (stereo not given)	81.5 to 83.5
N#Cc1c(C(F)(F)F)ccc(Cl)c1Cl	53 to 54
O=[N+]([O-])c1ccc(OCC2CCN(c3ccncc3)CC2)cc1	119 to 120

SMILES	melting point [°C]
COC(=O)c1cc(-c2ccc(Cl)cc2)n(Cc2ccc(Cl)cc2Cl)n1	105
CN1CCN(c2ccc3c(c2)NC(=O)C(C)(c2ccc(N)cc2)C3=O)CC1 (stereo not given)	265 to 267
COCc1cc2c(cc1O)CCC1C2CCC2(C)C(=O)CCC12 (stereo not given)	149 to 151
COCCOCCOc1cccc2c1C1(COc3cc4c(cc31)OCCO4)C(=O)N2C (stereo not given)	109 to 110
NC(=O)c1ccc2cc(O)ccc2c1	205 to 206
Cc1cccc2c1C=Cc1ccccc1C2O (stereo not given)	114 to 116
O=c1ccc2ccc(OCCCCN3CCCN(c4cccc(Cl)c4Cl)CC3)cc2[nH]1	55 to 57
O=C1C=C2CCCCC2N1c1ccc(OCCN2CCCCC2)c(Cl)c1 (stereo not given)	98
CCCCCCCC(=O)NCCCCCO	62 to 63
COc1ccc2cc(S(N)(=O)=O)oc2c1	148 to 149
COc1nc(C(F)(F)C(F)(F)F)c(F)c(=O)n1-c1cc(OC(C)C)c(Cl)cc1F	69 to 71
CC(C)(C)C1=CC=CC(c2ccccc2Cl)(C(C)(C)C)C1O (stereo not given)	89.5 to 91
CC(C)=CCNc1ncnc2nc(NCCN)[nH]c12	96 to 102
COc1cc(N(C)C)nc(N2CCN(Cc3ccc(CNC(C)=O)cc3)CC2)n1	115 to 118
CCC(C)(C)Nc1c(NCc2cc3cc(C#N)ccc3o2)c(=O)c1=O	171 to 173
Cc1ccc(S(=O)(=O)Cc2c(-c3ccc(Cl)cc3Cl)nn(C)c2O)cc1	209
Cc1cn(-c2cc(NC(=O)c3ccc(C)c(C#Cc4ccc(NC(C)C)nn4)c3)cc(C(F)(F)F)c2)cn1	192 to 194
CCCCCCCCCCCCNC(=O)N(C)C[C@H](O)[C@@H](O)[C@H](O)[C@H](O)CO	117
Cc1cc(C2OCCO2)ncc1[N+](=O)[O-]	77 to 79
CCCCC(=O)OCC1OC(n2cnc3c(OC)nc(N)nc32)C(O)C1O (stereo not given)	105
CCOC(=O)c1c(O)c2cnc(N3CCCC3)nc2n(C)c1=O	174 to 177
O=c1[nH]c2ncc(-c3ccc(O)cc3)nc2n1CC1CCCOC1 (stereo not given)	271 to 272
CC(=O)C1CCC2C3CC=C4CCCCC4(C)C3CCC12C (stereo not given)	207 to 209

SMILES	melting point [°C]
O=C(O)C(Sc1nc2c(s1)CCCC2)c1ccccc1 (stereo not given)	118 to 120
CCP(=O)(OC)C(O)[C@H](CC1CCCCC1)NC(=O)[C@H](CC(C)C)NC(=O)[C@H](Cc1ccccc1)NC(=O)C1CCCC1 (stereo not given in full)	155 to 165
COC1=CC(=O)C(=O)C=C1NCCCl	150 to 152
COc1cc(C2(C=O)C=CC=CC2)ccc1OCCCBr (stereo not given)	88 to 89
NC(=O)N1C(=O)C(C(=O)c2cc(Cl)cs2)c2nc(Cl)ccc21 (stereo not given)	> 250
CC(C)c1cc(C(=O)Nc2ccc(C(=O)O)cc2)[nH]c1C(C)C	230
COc1cc(C2CCCCC2)ccc1CCCC(=O)O	104 to 105
Cc1cc(OC(F)F)nc(N)n1	136 to 137
C#CC(C)(C)Oc1ccc(-c2ccnc(C)c2)cc1	37 to 40
CN(C)C=Nc1cccc2nc(N3CCN(C)CC3)c(N3CCN(C)CC3)nc12	183 to 186
COc1cc(N)c(Cl)cc1C(=O)NCC1CCN(CCCC(=O)c2ccc(O)cc2)CC1	199 to 201
COc1cc2c(cc1C(C)=O)CC1(CCCCN1C(=O)C(F)(F)F)CC2 (stereo not given)	156 to 157
CC(C)(C)OC(=O)Nc1ncc(F)s1	157 to 159
CCc1nc2sc3ccccc3n2c1CO	180 to 182
C=CCNC1=NS(=O)(=O)c2cc(Cl)cnc2N1	224 to 227
C#CCOc1nc(-n2ncc(C(=O)OCC)c2N)c(C(F)(F)F)cc1Cl	118 to 119
COc1cc2c(Nc3cc(O)c(Cl)cc3F)c(C#N)cnc2c(OC)c1OC	223 to 225
CS(=O)(=O)N1CCC(N)CC1	65.3 to 65.7
Clc1nc(N2CC3CCC(CC3)C2)nc(N2CC3CCC(CC3)C2)n1	195 to 200
CC1CC2C3CC(Cl)C4=CC(=O)C=CC4(C)C3(Cl)C(O)CC2(C)C1C(=O)COC(=O)C(C)(C)C (stereo not given)	238
CCOC(=O)CCCn1c(=O)[nH]c2ccccc2c1=O	133 to 135
CCCCCCCCOCCCN=C=O	74 to 76

Further lines, results first:

melting point [°C]	SMILES
271 to 273	COc1cc2ncnc(Nc3cccc4ccccc34)c2cc1OC
186 to 187	Cc1oc(-c2ccccc2)nc1COc1ccc(C(=O)c2ccccc2OC(C)C(=O)O)cc1 (stereo not given)
41 to 42	CCOC(=O)c1ccc(/C=C(/COCc2ccc(OC)cc2)Cn2ccnc2)c(Cl)c1
67 to 70	CCCCc1oc2ccccc2c1Cc1ccc(O)cc1
111 to 112	CCCCCCCCOc1ccc(C(=O)Oc2ccc(C3CCC(O)CC3)cc2)cc1 (stereo not given)
268 to 270	CCc1nc(NC(=O)C2=C(O)c3ccc4ccccc4c3S(=O)(=O)N2)sc1C
203 to 205	COC(=O)C1=C(C)NC(C)=C(NC(=O)Nc2ccccc2)C1c1ccccc1Cl (stereo not given)
293 to 295	CNC(=O)c1ccccc1Nc1nc(Nc2ccc3c(c2)NC(=O)CCC3)ncc1Cl
95 to 96	Cc1c(NCc2ccccc2)c2c(c3c1C(c1ccc(C(C)C)cc1)CO3)CCC2 (stereo not given)
182	Cc1cccc(NC(=O)NC(Cc2ccccc2)C(=O)O)c1 (racemic)
145	CC(C)(C)C(COC(N)=O)(NC(=O)C(=O)c1c[nH]c2cc(Br)ccc12)c1c[nH]c2ccccc12 (stereo not given)
240 to 244	O=C(Nc1ccc(-c2c[nH]c(=O)cn2)cc1)OCc1ccccc1
176 to 177	Cc1cc(C(=O)N2Cc3cccn3Cc3ccccc32)ccc1C1=CC(=O)CCC1
100 to 102	COc1cc2cc(COCC(=O)N3CCN(C)CC3)c(CO)c(-c3ccnc(-n4c(=O)ccc5ccccc54)c3)c2cc1OC
115 to 116	COC(=O)Cc1ccc(OCc2ccc(-c3ccccc3)cc2)cc1
147 to 149	COc1ccc(-c2c(NS(=O)(=O)c3ccc(C)cc3)ncnc2OCCO)cc1

melting point [°C]	SMILES
143 to 144	CC1CCCCC1OC(=O)c1cc(NCSc2ccccc2)ccc1Cl (stereo not given)
149 to 150	CC(=O)C(CCCc1ccccc1)n1cnc2c(=O)[nH]c(Cc3ccc(OC(F)F)c(N)c3)nc21 (stereo not given)
138 to 143	Oc1ccc2c(-c3ccccc3)coc2c1
166	COc1ccc(S(=O)(=O)C2(C(=O)NO)CCN(Cc3ccc(-c4cccs4)cc3)CC2)cc1
154 to 156	O=C(CSc1ccc(Cl)cc1C(=O)O)c1ccccc1
160 to 164	CCCCc1oc2ccccc2c1C(=O)N(Cc1ccccc1)Cc1ccc2cc(O)ccc2c1
169 to 171	O=C(CCc1ccccn1)Nc1cc(N2CC(c3ccccc3)OC2=O)ccn1 (stereo not given)
219 to 221	O=C(c1ccc2c(c1)[C@@H](O)[C@H](Br)CCO2)c1ccccc1F (relative stereo)
136 to 141	O=C(OCCOC(c1ccccc1)(c1ccccc1)c1ccccc1)Oc1ccc([N+](=O)[O-])cc1
115	CC(c1ccc(O)cc1)C(CS)C(=O)NC(Cc1ccc(O)cc1)C(=O)O (stereo not given)
136 to 138	CCCCOCCOc1ccc(-c2ccc3c(c2)C=C(C(=O)Nc2ccc(CC(=O)c4nccn4CCC)cc2)CCN3CC(C)C)cc1
189 to 191	COc1cc2c(c3c1OC(C)(C)C3)C(c1cccc(NC(=O)Nc3ccccn3)c1)=NC(C)(C)C2
161 to 165	S=C(N1CCC(c2ccccc2)(c2ccccc2)CC1)n1ccnc1
184 to 185	CC(=O)OCC1OC(n2cc(Cc3ccc4occc4c3)c3c(F)cccc32)C(OC(C)=O)C(OC(C)=O)C1OC(C)=O (stereo not given)
108 to 110	CCOC(=O)C1C(=O)N(c2ccccc2)c2cc3ccoc3cc21 (stereo not given)
173 to 174	CCOC(=O)Cc1ccc(NC(=O)C(COc2cccc(Cl)c2)NS(=O)(=O)c2ccc(Cl)cc2)cc1 (racemic)
